Data reported in US6054435A, “6-O-substituted macrolides having antibacterial activity” (priority 1999, dated 2000).
Converted amounts (≈) assume the structure as drawn.

Assays:
Assay in all cases: in vitro antibacterial activity (MIC), agar dilution
Type in all cases: cell-based
[1] = system: Micrococcus luteus ATCC 9341; conditions: organism code OO; BHI agar, 35-37° C., 20 to 24 hours; unit assumed
Method in brief: (§1)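 Antibacterial MIC determined by agar dilution in BHI agar with twelve successive concentrations; controls comprised compound-free plates and a same-class reference antibiotic. MIC: lowest concentration giving no growth, slight haze or sparsely isolated colonies.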

[2] = system: Staphylococcus aureus 1775; conditions: organism code GG; BHI agar, 35-37° C., 20 to 24 hours; unit assumed
Method in brief: (§2)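 Endpoint: lowest concentration with no growth, slight haze or sparsely isolated colonies at the inoculum spot, judged against a compound-free BHI control. Strains were replicator-inoculated at 1:100 (1:10 for Streptococcus and other slow growers).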

[3] = system: Streptococcus agalactiae CMX 508; conditions: organism code KK; BHI agar, 35-37° C., 20 to 24 hours; unit assumed
Method in brief: as §2

[4] = system: Staphylococcus aureus NCTC10649M; conditions: organism code EE; BHI agar, 35-37° C., 20 to 24 hours; unit assumed
Method in brief: as §2

Escherichia coli JUHL = conditions: organism code QQ; BHI agar, 35-37° C., 20 to 24 hours; unit assumed
Method in brief: as §2

Escherichia coli DC-2 = conditions: organism code SS; BHI agar, 35-37° C., 20 to 24 hours; unit assumed
Method in brief: as §2

[5] = system: Nocardia Asteroides ATCC9970; conditions: organism code VV; BHI agar, 35-37° C., 20 to 24 hours; unit assumed
Method in brief: as §2

[6] = system: Enterococcus faecium ATCC 8043; conditions: organism code II; BHI agar, 35-37° C., 20 to 24 hours; unit assumed
Method in brief: as §2

[7] = system: Mycobacterium smegmatis ATCC 114; conditions: organism code UU; BHI agar, 35-37° C., 20 to 24 hours; unit assumed
Method in brief: as §2

[8] = system: Haemophilis Influenzae DILL AMP R; conditions: organism code WW; BHI agar, 35-37° C., 20 to 24 hours; unit assumed
Method in brief: as §2

[9] = system: Streptococcus Pneumonia 5649; conditions: organism code ZZA; BHI agar, 35-37° C., 20 to 24 hours; unit assumed
Method in brief: as §2

[10] = system: Staphylococcus aureus CMX 553; conditions: organism code FF; BHI agar, 35-37° C., 20 to 24 hours; unit assumed
Method in brief: as §2

[11] = system: Streptococcus Pneumonia 5979; conditions: organism code ZZ; BHI agar, 35-37° C., 20 to 24 hours; unit assumed
Method in brief: as §2

Escherichia coli SS = conditions: organism code RR; BHI agar, 35-37° C., 20 to 24 hours; unit assumed
Method in brief: as §2

[12] = system: Streptococcus pyogenes 930; conditions: organism code MM; BHI agar, 35-37° C., 20 to 24 hours; unit assumed
Method in brief: as §2

[13] = system: Streptococcus Pneumonia GYR 1171; conditions: organism code YY; BHI agar, 35-37° C., 20 to 24 hours; unit assumed
Method in brief: as §2

[14] = system: Streptococcus pyogenes EES61; conditions: organism code LL; BHI agar, 35-37° C., 20 to 24 hours; unit assumed
Method in brief: as §2

[15] = system: Staphylococcus aureus ATCC 6538P; conditions: organism code AA; BHI agar, 35-37° C., 20 to 24 hours; unit assumed
Method in brief: as §2

[16] = system: Streptococcus bovis A-5169; conditions: organism code JJ; BHI agar, 35-37° C., 20 to 24 hours; unit assumed
Method in brief: as §2

[17] = system: Streptococcus pyogenes PIU 2548; conditions: organism code NN; BHI agar, 35-37° C., 20 to 24 hours; unit assumed
Method in brief: as §2

[18] = system: Staphylococcus aureus A-5278; conditions: organism code CC; BHI agar, 35-37° C., 20 to 24 hours; unit assumed
Method in brief: as §2

[19] = system: Staphylococcus epidermidis 3519; conditions: organism code HH; BHI agar, 35-37° C., 20 to 24 hours; unit assumed
Method in brief: as §2

[20] = system: Staphylococcus aureus CMX 642A; conditions: organism code DD; BHI agar, 35-37° C., 20 to 24 hours; unit assumed
Method in brief: as §2

[21] = system: Micrococcus luteus ATCC 4698; conditions: organism code PP; BHI agar, 35-37° C., 20 to 24 hours; unit assumed
Method in brief: as §1

Candida albicans CCH 442 = conditions: organism code TT; BHI agar, 35-37° C., 20 to 24 hours; unit assumed
Method in brief: as §2

[22] = system: Staphylococcus aureus A5177; conditions: organism code BB; BHI agar, 35-37° C., 20 to 24 hours; unit assumed
Method in brief: as §2

[23] = system: Streptococcus Pneumonia ATCC6303; conditions: organism code XX; BHI agar, 35-37° C., 20 to 24 hours; unit assumed
Method in brief: as §2

Structure (SMILES) | MIC [1] [µg/mL] | MIC [2] [µg/mL] | MIC [3] [µg/mL] | MIC [4] [µg/mL] | MIC (Escherichia coli JUHL) [µg/mL] | MIC (Escherichia coli DC-2) [µg/mL] | MIC [5] [µg/mL] | MIC [6] [µg/mL] | MIC [7] [µg/mL] | MIC [8] [µg/mL] | MIC [9] [µg/mL] | MIC [10] [µg/mL] | MIC [11] [µg/mL] | MIC (Escherichia coli SS) [µg/mL] | MIC [12] [µg/mL] | MIC [13] [µg/mL] | MIC [14] [µg/mL] | MIC [15] [µg/mL] | MIC [16] [µg/mL] | MIC [17] [µg/mL] | further results
CC[C@H]1OC(=O)[C@H](C)C(=O)[C@H](C)[C@@H](O[C@@H]2O[C@H](C)C[C@H](N(C)C)[C@H]2O)[C@](C)(OCC#Cc2ccc(-c3ccc(Cl)s3)s2)C[C@@H](C)C(=O)[C@H](C)[C@H]2NC(=O)O[C@@]21C [Example 26] | 0.05 (≈ 0.0598 µM) | 12.5 (≈ 15 µM) | ≤ 0.005 | 0.2 (≈ 0.239 µM) | > 100 | > 100 | 0.1 (≈ 0.12 µM) | 0.1 (≈ 0.12 µM) | 0.39 (≈ 0.467 µM) | 4 (≈ 4.79 µM) | 0.25 (≈ 0.299 µM) | 0.2 (≈ 0.239 µM) | 0.5 (≈ 0.598 µM) | 1.56 (≈ 1.87 µM) | 3.1 (≈ 3.71 µM) | 0.03 (≈ 0.0359 µM) | 0.02 (≈ 0.0239 µM) | 0.2 (≈ 0.239 µM) | 0.05 (≈ 0.0598 µM) | 0.2 (≈ 0.239 µM) | MIC [18]: 12.5 µg/mL (≈ 15 µM); MIC [19]: 0.2 µg/mL (≈ 0.239 µM); MIC [20]: 0.2 µg/mL (≈ 0.239 µM); MIC [21]: 0.2 µg/mL (≈ 0.239 µM); MIC (Candida albicans CCH 442): > 100 µg/mL; MIC [22]: 0.2 µg/mL (≈ 0.239 µM); MIC [23]: 0.03 µg/mL (≈ 0.0359 µM)
CC[C@H]1OC(=O)[C@H](C)C(=O)[C@H](C)[C@@H](O[C@@H]2O[C@H](C)C[C@H](N(C)C)[C@H]2O)[C@](C)(OCC#Cc2ccc(-c3cccc([N+](=O)[O-])c3)s2)C[C@@H](C)C(=O)[C@H](C)[C@H]2NC(=O)O[C@@]21C [Example 21] | 0.02 (≈ 0.0238 µM) | 100 (≈ 119 µM) | 0.02 (≈ 0.0238 µM) | 0.1 (≈ 0.119 µM) | > 100 | > 100 | 0.2 (≈ 0.238 µM) | 0.05 (≈ 0.0595 µM) | 0.2 (≈ 0.238 µM) | 8 (≈ 9.52 µM) | 0.5 (≈ 0.595 µM) | 0.05 (≈ 0.0595 µM) | 2 (≈ 2.38 µM) | 0.2 (≈ 0.238 µM) | 0.78 (≈ 0.929 µM) | 0.03 (≈ 0.0357 µM) | 0.02 (≈ 0.0238 µM) | 0.1 (≈ 0.119 µM) | 0.02 (≈ 0.0238 µM) | 0.2 (≈ 0.238 µM) | MIC [18]: > 100 µg/mL; MIC [19]: 0.2 µg/mL (≈ 0.238 µM); MIC [20]: 0.05 µg/mL (≈ 0.0595 µM); MIC [21]: 0.05 µg/mL (≈ 0.0595 µM); MIC (Candida albicans CCH 442): > 100 µg/mL; MIC [22]: 0.05 µg/mL (≈ 0.0595 µM); MIC [23]: 0.03 µg/mL (≈ 0.0357 µM)
CC[C@H]1OC(=O)[C@H](C)C(=O)[C@H](C)[C@@H](O[C@@H]2O[C@H](C)C[C@H](N(C)C)[C@H]2O)[C@](C)(OCC#Cc2ccc(-c3cncc(C(N)=O)c3)s2)C[C@@H](C)C(=O)[C@H](C)[C@H]2NC(=O)O[C@@]21C [Example 9] | 0.02 (≈ 0.0238 µM) | > 100 | 0.02 (≈ 0.0238 µM) | 0.2 (≈ 0.238 µM) | 50 (≈ 59.6 µM) | 50 (≈ 59.6 µM) | 0.1 (≈ 0.119 µM) | 0.05 (≈ 0.0596 µM) | 6.2 (≈ 7.39 µM) | 2 (≈ 2.38 µM) | 0.25 (≈ 0.298 µM) | 0.1 (≈ 0.119 µM) | 0.03 (≈ 0.0358 µM) | 0.78 (≈ 0.93 µM) | 0.2 (≈ 0.238 µM) | ≤ 0.004 | 0.02 (≈ 0.0238 µM) | 0.1 (≈ 0.119 µM) | 0.02 (≈ 0.0238 µM) | 0.2 (≈ 0.238 µM) | MIC [18]: > 100 µg/mL; MIC [19]: 0.1 µg/mL (≈ 0.119 µM); MIC [20]: 0.1 µg/mL (≈ 0.119 µM); MIC [21]: 0.1 µg/mL (≈ 0.119 µM); MIC (Candida albicans CCH 442): > 100 µg/mL; MIC [22]: 0.1 µg/mL (≈ 0.119 µM); MIC [23]: ≤ 0.004 µg/mL
CC[C@H]1OC(=O)[C@H](C)C(=O)[C@H](C)[C@@H](O[C@@H]2O[C@H](C)C[C@H](N(C)C)[C@H]2O)[C@](C)(OC/C=C/c2ccc(-c3cccs3)s2)C[C@@H](C)C(=O)[C@H](C)[C@H]2NC(=O)O[C@@]21C [Example 74] | 0.02 (≈ 0.0249 µM) | 25 (≈ 31.1 µM) | ≤ 0.005 | 0.2 (≈ 0.249 µM) | 100 (≈ 125 µM) | > 100 | 0.1 (≈ 0.125 µM) | 0.02 (≈ 0.0249 µM) | 0.39 (≈ 0.486 µM) | 4 (≈ 4.98 µM) | 0.25 (≈ 0.311 µM) | 0.1 (≈ 0.125 µM) | 2 (≈ 2.49 µM) | 0.39 (≈ 0.486 µM) | > 100 | ≤ 0.004 | 0.01 (≈ 0.0125 µM) | 0.1 (≈ 0.125 µM) | 0.02 (≈ 0.0249 µM) | 0.1 (≈ 0.125 µM) | MIC [18]: 50 µg/mL (≈ 62.3 µM); MIC [19]: 0.1 µg/mL (≈ 0.125 µM); MIC [20]: 0.1 µg/mL (≈ 0.125 µM); MIC [21]: 0.1 µg/mL (≈ 0.125 µM); MIC (Candida albicans CCH 442): > 100 µg/mL; MIC [22]: 0.1 µg/mL (≈ 0.125 µM); MIC [23]: ≤ 0.004 µg/mL
CC[C@H]1OC(=O)[C@H](C)C(=O)[C@H](C)[C@@H](O[C@@H]2O[C@H](C)C[C@H](N(C)C)[C@H]2O)[C@](C)(OCC#Cc2ccc(-c3ccco3)s2)C[C@@H](C)C(=O)[C@H](C)[C@H]2NC(=O)O[C@@]21C [Example 23] | 0.01 (≈ 0.0127 µM) | > 100 | ≤ 0.005 | 0.05 (≈ 0.0637 µM) | 50 (≈ 63.7 µM) | 50 (≈ 63.7 µM) | 0.02 (≈ 0.0255 µM) | 0.02 (≈ 0.0255 µM) | 0.78 (≈ 0.994 µM) | 2 (≈ 2.55 µM) | 0.25 (≈ 0.318 µM) | 0.05 (≈ 0.0637 µM) | 8 (≈ 10.2 µM) | 0.39 (≈ 0.497 µM) | 6.2 (≈ 7.9 µM) | 0.03 (≈ 0.0382 µM) | 0.1 (≈ 0.127 µM) | 0.05 (≈ 0.0637 µM) | 0.01 (≈ 0.0127 µM) | 0.1 (≈ 0.127 µM) | MIC [18]: > 100 µg/mL; MIC [19]: 0.05 µg/mL (≈ 0.0637 µM); MIC [20]: 0.05 µg/mL (≈ 0.0637 µM); MIC [21]: 0.05 µg/mL (≈ 0.0637 µM); MIC (Candida albicans CCH 442): > 100 µg/mL; MIC [22]: 0.05 µg/mL (≈ 0.0637 µM); MIC [23]: 0.03 µg/mL (≈ 0.0382 µM)
